Results: publication PMC4467156, “A new chemical inhibitor of angiogenesis and tumorigenesis that targets the VEGF signaling pathway upstream of Ras” (Oncotarget, 2015)
Where two headings read alike, the source gives them in different places.

Columns and labels:
HMVECd cells [1] = assay: Scratch wound closure assay, primary HMVECd; type: cell-based; details: Homo sapiens, Endothelial cell; primary dermal microvascular endothelial cells, 10% FCS
Description: Figure 3 Endothelial cell-specific inhibition of wound closure by COB223 The dose-dependent effect of COB223 on cellular wound closure was measured as described in Material and Methods on either HMVECd or on 3T3 cells. The results are expressed as the percentage of wound closure (with closure observed in the presence of 10% FCS taken as 100%) : mean values +/− SD from three experiments.
Confluent cell monolayers were wounded with a plastic pipet tip, washed gently with phosphate buffer saline (PBS) and treated with complete media containing molecules, as indicated. Cells were placed at 37°C into the incubator and photographed at indicated times. Quantitation of closure of the monolayer was performed using the NIH Image J program (http://rsbweb.nih.gov/ij/). Results are expressed as percentage of wound closure at t = 24 h as compared to the initial wound at t = 0 h.

HUVEC cells [2] = assay: Boyden chamber cell migration assay; type: cell-based, human; details: 25 μM COB223 in upper chamber
Description: The assay was performed using 24-multiwell plates and individual cell culture inserts bearing a porous (size of pores: 3 μm) and dyed bottom membrane, which were purchased from BD (FluoroBlok^TM). HUVEC cells were rendered fluorescent by incubation for 24 h in the presence of 5 μg/ml of Di-I (1,1′-dioctadecyl-3,3,3′3′-tetramethylindocarbocyanine perchlorate) and subsequently seeded (5 × 10^4 cells/insert) in the upper chambers (inserts) in serum-free culture medium supplemented with 25 μM COB223 or with vehicle (DMSO). Serum supplemented medium (5% FCS) was placed in the lower chambers (plate wells). After incubation for 4 h or 24 h at 37°C, the fluorescence of cells that had passed through the dyed membrane was measured on a plate reader at 540 nm/570 nm excitation/emission wavelengths. […]
Figure S1: Effect of COB223 on endothelial cell migration. […] Wound closure was measured after 24 h and 48 h of incubation as described in Material and Methods. […]
(B) Boyden chamber assay: The technique is described in Material and Methods. We measured the passage of fluorescently labeled HUVEC cells through a 3 μm-porous membrane in response to fetal calf serum used as a chemo-attractant. […] The Figure represents the mean fluorescence ± SD of duplicate determinations after 24 h or 48h of incubation from two independent experiments. […]

HMVECd cells [3] = assay: 3H-thymidine incorporation, HMVECd; type: cell-based, human; details: 24 h
Description: Cells were treated with molecules in complete medium. After 22 h, 1 μCi per well H^3 thymidine was added for 2 hours. Cells are then fixed by 10% trichloroacetic acid and harvested with 0.2N NaOH, 1% SDS. Radioactivity was measured in a beta counter.

HMEC-GFP spheroids = assay: Sprouting of HMEC-GFP spheroids into collagen gels; type: cell-based; details: Homo sapiens
Description: To prepare spheroids, HMEC-GFP cells were seeded at 3000 cells/well in round-bottom 96-multiwell plates in DMEM 1 g/L glucose (Eurobio, Les Ulis, France) containing 0.25% methylcellulose. 48 h later, the spheroids were collected, transferred into flat-bottom 96-well plates and embedded in collagen gel (1.2 mg/mL type I collagen) prepared in a Iscove's modified Dulbecco's medium, supplemented with FGF-2 (10 ng/mL), 50 U/mL penicillin and 50 μg/mL streptomycin. Treatment with COB223 (10 and 20 μM) started right after spheroids were included in the collagen gels. Sprouting was allowed for 24 h at 37°C. Images were acquired by fluorescence microscopy and analysis of gel invasion was performed using the freeware Image J. Statistical analysis was performed using a Kruskal & Wallis test.
HMEC-GFP cells were developed as spheroids in an Iscove's modified Dulbecco's medium containing 0.2% methylcellulose in round-bottom 96-multiwell plate. Two days later, spheroids were collected and invasion was allowed in a Iscove's modified Dulbecco's medium, supplemented with 1.2 mg/mL collagen I, 50 U/mL Penicillin, 50 μg/mL streptomycin. Molecules (10 or 20 μM) or FGF-2 (10 ng/mL) were added in the preparation before collagen gelification.

LLC/2 tumor = assay: Mouse LLC/2 tumor model; type: in vivo
Description: We chose this model because of its rapid growth in syngenic mice and its strong dependence on angiogenesis. LLC/2 cells (10^6 in 50 μL medium) were subcutaneously injected into the right flank of […] mice. Seven days after tumor inoculation, mice were given an intraperitoneal (i.p.) injection of either solvent (1.7% DMSO) or COB223 every other day. Tumor size was measured with calipers, and the volume was calculated according to the formula (L*w^2)/2 where L and […] stand for length and width respectively. All mice were killed 21 days after tumor grafting.
Tumors collected after animal sacrifice were split into two parts and fixed either in 4% paraformaldehyde (v/v) or in formalin fixative for 24 h at 4°C and embedded in paraffin and then cut into 7 μm sections. Sections were stained using specific antibodies and the avidin–biotin immunoperoxidase detection method. Endogenous peroxidase activity was quenched by pretreatment with 3% (v/v) hydrogen peroxide in methanol for 20 min. For endothelial immunohistochemistry detection, CD31 antibody (MEC13.3, BD Pharmingen) was incubated for 2 h at room temperature. The tissue sections were subsequently washed three times with PBS and incubated with biotinylated rabbit anti-rat IgG (1:250 dilution in blocking solution; Sigma-Aldrich, Saint-Quentin Fallavier, France) for 1 h at room temperature. After three PBS washes, the slides were incubated with an avidin: biotin complex (Vectastain ABC kit; Vector Laboratories, Burlingame, CA) for 45 minutes. After a final PBS wash, the immunoreactive proteins were visualized after the addition of 3,3′-diaminobenzidine (Dako, Trappes, France) for 2 min and then counterstained with hematoxylin. Control sections were treated without primary antibody.

HUVEC cells [4] = assay: Binding of 125I-VEGF-A121 to HUVEC cells; design: species or system human; details: data not shown
[5] = non-necrotic part of treated tumors

Question: How did the EC50 (HMVECd cells [1]) turn out when `CN(C)c1cccc2c(S(=O)(=O)NCCCN3CCN(CCCNC(=O)OC(C)(C)C)CC3)cccc12` [COB223, tert-Butyl 3-(4-(3-(5-(dimethylamino)naphthalene-1-sulfonamido)propyl)piperazin-1-yl) propylcarbamate] was run?
Answer: 25 µM

Question: What about the “migration towards fetal calf serum (Boyden chamber)” value (HUVEC cells [2]) of the same compound?
Answer: significantly inhibited

Question: And the “concentrations inhibiting thymidine incorporation” value (HMVECd cells [3])?
Answer: above 5 μM

Question: What about the inhibition at 10 µM (HMEC-GFP spheroids; 10 μM COB223, 10 ng/ml FGF-2, collagen I gel, read-out: inhibition of FGF-2-stimulated sprouting) of the same compound?
Answer: 70%

Question: What about the inhibition at 10 µM (HMEC-GFP spheroids; 10 μM COB223, collagen I gel, read-out: inhibition of basal sprouting) of the same compound?
Answer: 50%

Question: What about the “tumors with necrotic areas larger than 15% of their surface” value (LLC/2 tumor; COB223-treated tumors (untreated 20%)) of the same compound?
Answer: 60%

Question: And the “density of the microvessels (CD31)” value (LLC/2 tumor; [5])?
Answer: significant decrease

Question: And the “size (luminal surface) of the microvessels (CD31)” value (LLC/2 tumor; [5])?
Answer: significant decrease

Question: What about the “number of phospho-ERK1/2 and phospho-histone H3 positive cells” value (LLC/2 tumor; tumor sections) of the same compound?
Answer: significantly decreased

Question: What about the “binding of 125I-VEGF-A121 to HUVEC cells” value (HUVEC cells [4]) of the same compound?
Answer: unaffected
